Patent publication US7544683B2, “Cyclohexyl derivatives” (Hoffmann-La Roche Inc., priority 2007, dated 2009)

Biological target: T1, histamine 3 receptor (H3R) (Homo sapiens, UniProt Q9Y5N1)
T1 construct: expressed in transfected cells; host or cells: CHO cells
Experiment: Binding assay with 3H-(R)α-methylhistamine, competition binding on membranes of the human H3R-CHO cell line
Conditions: competition with 3H(R)α-methylhistamine (1 nM), Ki calculated from IC50 by Cheng-Prusoff
Experimental: Binding Assay with ^3H-(R)α-methylhistamine
Saturation binding experiments were performed using HR3-CHO membranes prepared as described in Takahashi, K, Tokita, S., Kotani, H. (2003) J. Pharmacol. Exp. Therapeutics 307, 213-218.
An appropriate amount of membrane (60 to 80 μg protein/well) was incubated with increasing concentrations of ^3H(R)α-Methylhistamine di-hydrochloride (0.10 to 10 nM). Non specific binding was determined using a 200 fold excess of cold (R)α-Methylhistamine dihydrobromide (500 nM final concentration). The incubation was carried out at room temperature (in deep-well plates shaking for three hours). The final volume in each well was 250 μl. The incubation was followed by rapid filtration on GF/B filters (pre-soaked with 100 μl of 0.5% PEI in Tris 50 mM shaking at 200 rpm for two hours). The filtration was made using a cell-harvester and the filter plates were then washed five times with ice cold washing buffer containing 0.5 M NaCl. After harvesting, the plates were dried at 55° C. for 60 min, then we added scintillation fluid (Microscint 40, 40 microl in each well) and the amount of radioactivity on the filter was determined in Packard top-counter after shaking the plates for two hours at 200 rpm at room temperature.
Binding Buffer: 50 mM Tris-HCl pH 7.4 and 5 mM MgCl2×6H2O pH 7.4. Washing Buffer: 50 mM Tris-HCl pH 7.4 and 5 mM MgCl2×6H2O and 0.5 M NaCl pH 7.4.
Indirect measurement of affinity of H3R inverse agonists: twelve increasing concentrations (ranging from 10 μM to 0.3 nM) of the selected compounds were always tested in competition binding experiments using membrane of the human H3R-CHO cell line. An appropriate amount of protein, e.g. approximately 500 cpm binding of RAMH at Kd, were incubated for 1 hour at room temperature in 250 μl final volume in 96-well plates in presence of ^3H(R)α-methylhistamine (1 nM final concentration=Kd). Non-specific binding was determined using a 200 fold excess of cold (R)α-methylhistamine dihydrobromide.
All compounds were tested at a single concentration in duplicate. […] The concentration at which 50% inhibition of the radioligand ^3H(R)α-methylhistamine is obtained (the IC50) is determined from the linear regression of a plot of the logarithm of the concentration versus percent inhibition measured for the different concentrations. Ki's were calculated from IC50 based on Cheng-Prusoff equation (Cheng, Y, Prusoff, W H (1973) Biochem Pharmacol 22, 3099-3108): Ki=IC50/[1+D/Kd] wherein D is the concentration of the radioligand and Kd is the binding constant for the radioligand binding to the receptor under the conditions used in the competition experiment.

T1 sequence (Q9Y5N1 whole entry): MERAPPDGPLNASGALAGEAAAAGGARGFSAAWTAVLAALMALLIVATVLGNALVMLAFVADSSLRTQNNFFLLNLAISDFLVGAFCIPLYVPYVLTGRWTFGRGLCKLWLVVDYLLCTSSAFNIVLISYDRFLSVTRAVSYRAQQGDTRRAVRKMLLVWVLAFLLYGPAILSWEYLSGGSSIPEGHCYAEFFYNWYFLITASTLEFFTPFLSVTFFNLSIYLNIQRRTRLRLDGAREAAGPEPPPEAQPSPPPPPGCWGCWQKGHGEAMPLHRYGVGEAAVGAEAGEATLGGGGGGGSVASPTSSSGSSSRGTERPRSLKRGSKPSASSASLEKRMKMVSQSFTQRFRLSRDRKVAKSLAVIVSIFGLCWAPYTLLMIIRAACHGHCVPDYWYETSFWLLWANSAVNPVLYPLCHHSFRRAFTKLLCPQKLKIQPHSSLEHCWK

Ki	SMILES
6.9 nM	O=C1COCCN1c1ccc(O[C@H]2CC[C@H](C(=O)N3CCN(C4CCC4)CC3)CC2)cc1 [Example 42, trans-4-{4-[4-(4-Cyclobutyl-piperazine-1-carbonyl)-cyclohexyloxy]-phenyl}-morpholin-3-one]
5.6 nM	CC(C)c1nnc(-c2ccc(O[C@H]3CC[C@H](C(=O)N4CCN(C(C)C)CC4)CC3)cc2)o1 [Example 31, trans-{4-[4-(5-Isopropyl-[1,3,4]oxadiazol-2-yl)-phenoxy]-cyclohexyl}-(4-isopropyl-piperazin-1-yl)-methanone]
11.2 nM	CS(=O)(=O)c1ccc(O[C@H]2CC[C@H](C(=O)N3CCN(C4CCC4)CC3)CC2)nc1 [Example 13, trans-(4-Cyclobutyl-piperazin-1-yl)-[4-(5-methanesulfonyl-pyridin-2-yloxy)-cyclohexyl]-methanone]
6.5 nM	O=C([C@H]1CC[C@H](Oc2ccc(-n3cncn3)cc2)CC1)N1CCN(C2CCC2)CC1 [Example 1, Trans-(4-Cyclobutyl-piperazin-1-yl)-[4-(4-[1,2,4]triazol-1-yl-phenoxy)-cyclohexyl]-methanone]
4.4 nM	CC(C)N1CCN(C(=O)[C@H]2CC[C@H](Oc3ccc(-c4ccncc4)cc3)CC2)CC1 [Example 50, trans-(4-Isopropyl-piperazin-1-yl)-[4-(4-pyridin-4-yl-phenoxy)-cyclohexyl]-methanone]
28.8 nM	CNC(=O)c1csc(O[C@H]2CC[C@H](C(=O)N3CCN(C(C)C)CC3)CC2)n1 [Example 27, trans-2-[4-(4-Isopropyl-piperazine-1-carbonyl)-cyclohexyloxy]-thiazole-4-carboxylic acid methylamide]
